According to US10023593B2, “ALK kinase inhibitor, and preparation method and uses thereof” (BEIJING PEARL BIOTECHNOLOGY LIMITED LIABILITY COMPANY, priority 2014, dated 2018):

Experiments:
Wild Type ALK kinase = target: T1, Wild Type ALK kinase (Homo sapiens, UniProt Q9UM73); assay: HTRF KinEASE-TK assay, inhibitory activity on wild type ALK kinase; assay type: biochemical; conditions: wild type ALK 1 ng/μl, substrate 1 μM, 30° C. 35 minutes, read-out: Inhibition on ALK kinases (wildtype), IC50
T1 construct: purchased Sino-US Crown Bioscience, Inc. batch number ALK 20110607
Outline: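 ALK kinase at 1 ng/μl and substrate at 1 μM were reacted with compound (1% DMSO) in buffer with 5 mM MgCl2 and 1 mM DTT for 35 min at 30 °C. HTRF detection used the 665/615 ratio, normalised to no-compound wells and to 10.4 μM LDK-378 wells. IC50 came from a concentration-response fit.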

Karpas-299 cell line = assay: CellTiter-Glo cell proliferation inhibition on Karpas-299 cell line; assay type: cell-based; conditions: Homo sapiens, 96 h, Karpas-299 cells, 5000 cells/well, 4 days drug treatment
Outline: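 CellTiter-Glo luminescence measured after 4-day compound exposure (0.5% DMSO final) of Karpas-299 cells seeded at 5000/well in RPMI-1640 with 10% FBS, 37 °C, 5% CO2. IC50 derived from percent inhibition relative to vehicle wells.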

cytochrome P450 1A2 = target: T2, cytochrome P450 1A2 (Homo sapiens, UniProt P05177); assay: Inhibitory activity on cytochrome P450 1A2; assay type: in vitro ADME; conditions: no significant inhibition
T2 sequence (P05177 1-516): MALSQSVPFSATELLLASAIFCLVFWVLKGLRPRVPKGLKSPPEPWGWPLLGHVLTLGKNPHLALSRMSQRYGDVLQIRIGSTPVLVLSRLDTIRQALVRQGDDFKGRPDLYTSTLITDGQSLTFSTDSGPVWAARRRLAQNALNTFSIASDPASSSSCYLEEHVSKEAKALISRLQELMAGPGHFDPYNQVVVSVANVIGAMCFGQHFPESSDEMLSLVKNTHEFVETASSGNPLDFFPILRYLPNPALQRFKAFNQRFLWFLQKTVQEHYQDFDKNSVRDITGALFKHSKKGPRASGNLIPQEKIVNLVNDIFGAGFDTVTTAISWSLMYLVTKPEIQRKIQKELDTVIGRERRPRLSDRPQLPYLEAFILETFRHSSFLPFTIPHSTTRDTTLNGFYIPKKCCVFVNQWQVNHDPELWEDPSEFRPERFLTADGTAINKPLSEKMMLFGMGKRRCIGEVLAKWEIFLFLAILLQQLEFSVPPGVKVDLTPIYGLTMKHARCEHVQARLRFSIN

cytochrome P450 2C9 = cytochrome P450 2C9 (Homo sapiens, UniProt P11712); assay: Inhibitory activity on cytochrome P450 2C9; assay type: in vitro ADME; conditions: no significant inhibition
cytochrome P450 2C19 = cytochrome P450 2C19 (Homo sapiens, UniProt P33261); assay: Inhibitory activity on cytochrome P450 2C19; assay type: in vitro ADME; conditions: no significant inhibition
cytochrome P450 2D6 = cytochrome P450 2D6 (Homo sapiens, UniProt P10635); assay: Inhibitory activity on cytochrome P450 2D6; assay type: in vitro ADME; conditions: no significant inhibition
cytochrome P450 3A4 = cytochrome P450 3A4 (Homo sapiens, UniProt P08684); assay: Inhibitory activity on cytochrome P450 3A4; assay type: in vitro ADME; conditions: no significant inhibition
Sequence of cytochrome P450 3A4 (P08684 whole entry): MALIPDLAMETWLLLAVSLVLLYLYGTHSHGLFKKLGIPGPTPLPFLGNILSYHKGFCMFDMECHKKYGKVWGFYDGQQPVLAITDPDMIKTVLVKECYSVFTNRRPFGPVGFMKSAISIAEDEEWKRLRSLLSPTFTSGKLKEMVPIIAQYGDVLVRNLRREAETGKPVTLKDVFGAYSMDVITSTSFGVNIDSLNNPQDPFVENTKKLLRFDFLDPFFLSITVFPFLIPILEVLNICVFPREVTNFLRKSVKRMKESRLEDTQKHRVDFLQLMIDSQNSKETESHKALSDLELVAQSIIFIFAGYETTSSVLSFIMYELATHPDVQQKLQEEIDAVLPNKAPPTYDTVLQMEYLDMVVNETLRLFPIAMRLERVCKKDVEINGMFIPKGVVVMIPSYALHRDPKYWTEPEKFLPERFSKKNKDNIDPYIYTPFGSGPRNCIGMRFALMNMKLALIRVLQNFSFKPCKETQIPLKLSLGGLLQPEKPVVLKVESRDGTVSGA

Sequence of cytochrome P450 2C19 (P33261 whole entry): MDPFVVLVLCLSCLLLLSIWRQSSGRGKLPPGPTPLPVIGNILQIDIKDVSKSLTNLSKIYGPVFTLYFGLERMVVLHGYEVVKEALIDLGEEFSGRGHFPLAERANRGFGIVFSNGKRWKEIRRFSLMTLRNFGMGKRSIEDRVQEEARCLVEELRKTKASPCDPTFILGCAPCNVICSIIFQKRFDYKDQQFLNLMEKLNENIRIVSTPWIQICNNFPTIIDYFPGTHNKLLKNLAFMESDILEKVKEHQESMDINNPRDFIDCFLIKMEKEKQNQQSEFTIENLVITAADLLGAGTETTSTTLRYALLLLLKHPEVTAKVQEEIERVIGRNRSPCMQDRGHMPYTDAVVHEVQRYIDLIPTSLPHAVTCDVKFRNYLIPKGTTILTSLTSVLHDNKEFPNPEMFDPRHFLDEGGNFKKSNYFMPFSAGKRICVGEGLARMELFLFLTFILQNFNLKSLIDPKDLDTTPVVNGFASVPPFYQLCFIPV
Sequence of cytochrome P450 2C9 (P11712 whole entry): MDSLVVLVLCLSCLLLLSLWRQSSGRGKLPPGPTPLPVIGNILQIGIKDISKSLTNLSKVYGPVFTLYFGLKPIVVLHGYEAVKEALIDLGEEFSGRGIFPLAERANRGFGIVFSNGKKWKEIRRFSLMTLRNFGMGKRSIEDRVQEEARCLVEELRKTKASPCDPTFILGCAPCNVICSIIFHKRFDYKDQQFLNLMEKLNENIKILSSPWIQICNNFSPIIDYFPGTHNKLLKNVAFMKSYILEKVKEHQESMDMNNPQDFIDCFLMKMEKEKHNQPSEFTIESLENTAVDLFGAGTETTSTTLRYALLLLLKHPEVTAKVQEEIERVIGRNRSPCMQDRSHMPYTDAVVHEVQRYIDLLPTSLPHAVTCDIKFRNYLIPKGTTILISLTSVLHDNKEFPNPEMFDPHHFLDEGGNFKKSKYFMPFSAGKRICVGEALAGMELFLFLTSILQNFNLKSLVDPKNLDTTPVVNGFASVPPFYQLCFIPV
Sequence of cytochrome P450 2D6 (P10635 whole entry): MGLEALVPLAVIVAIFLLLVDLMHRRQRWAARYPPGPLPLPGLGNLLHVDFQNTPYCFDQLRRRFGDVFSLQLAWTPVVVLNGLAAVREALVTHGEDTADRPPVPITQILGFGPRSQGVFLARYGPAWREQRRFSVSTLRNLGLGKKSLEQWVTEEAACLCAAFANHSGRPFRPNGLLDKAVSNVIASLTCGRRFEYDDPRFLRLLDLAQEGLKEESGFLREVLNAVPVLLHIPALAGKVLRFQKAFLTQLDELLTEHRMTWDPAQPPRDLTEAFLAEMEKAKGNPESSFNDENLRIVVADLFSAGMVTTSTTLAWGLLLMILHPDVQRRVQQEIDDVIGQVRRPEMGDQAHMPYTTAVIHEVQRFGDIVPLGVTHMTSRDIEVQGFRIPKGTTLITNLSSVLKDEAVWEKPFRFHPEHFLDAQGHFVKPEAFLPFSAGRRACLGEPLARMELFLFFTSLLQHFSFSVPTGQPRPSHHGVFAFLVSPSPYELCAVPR
T1 sequence (Q9UM73 19-1620): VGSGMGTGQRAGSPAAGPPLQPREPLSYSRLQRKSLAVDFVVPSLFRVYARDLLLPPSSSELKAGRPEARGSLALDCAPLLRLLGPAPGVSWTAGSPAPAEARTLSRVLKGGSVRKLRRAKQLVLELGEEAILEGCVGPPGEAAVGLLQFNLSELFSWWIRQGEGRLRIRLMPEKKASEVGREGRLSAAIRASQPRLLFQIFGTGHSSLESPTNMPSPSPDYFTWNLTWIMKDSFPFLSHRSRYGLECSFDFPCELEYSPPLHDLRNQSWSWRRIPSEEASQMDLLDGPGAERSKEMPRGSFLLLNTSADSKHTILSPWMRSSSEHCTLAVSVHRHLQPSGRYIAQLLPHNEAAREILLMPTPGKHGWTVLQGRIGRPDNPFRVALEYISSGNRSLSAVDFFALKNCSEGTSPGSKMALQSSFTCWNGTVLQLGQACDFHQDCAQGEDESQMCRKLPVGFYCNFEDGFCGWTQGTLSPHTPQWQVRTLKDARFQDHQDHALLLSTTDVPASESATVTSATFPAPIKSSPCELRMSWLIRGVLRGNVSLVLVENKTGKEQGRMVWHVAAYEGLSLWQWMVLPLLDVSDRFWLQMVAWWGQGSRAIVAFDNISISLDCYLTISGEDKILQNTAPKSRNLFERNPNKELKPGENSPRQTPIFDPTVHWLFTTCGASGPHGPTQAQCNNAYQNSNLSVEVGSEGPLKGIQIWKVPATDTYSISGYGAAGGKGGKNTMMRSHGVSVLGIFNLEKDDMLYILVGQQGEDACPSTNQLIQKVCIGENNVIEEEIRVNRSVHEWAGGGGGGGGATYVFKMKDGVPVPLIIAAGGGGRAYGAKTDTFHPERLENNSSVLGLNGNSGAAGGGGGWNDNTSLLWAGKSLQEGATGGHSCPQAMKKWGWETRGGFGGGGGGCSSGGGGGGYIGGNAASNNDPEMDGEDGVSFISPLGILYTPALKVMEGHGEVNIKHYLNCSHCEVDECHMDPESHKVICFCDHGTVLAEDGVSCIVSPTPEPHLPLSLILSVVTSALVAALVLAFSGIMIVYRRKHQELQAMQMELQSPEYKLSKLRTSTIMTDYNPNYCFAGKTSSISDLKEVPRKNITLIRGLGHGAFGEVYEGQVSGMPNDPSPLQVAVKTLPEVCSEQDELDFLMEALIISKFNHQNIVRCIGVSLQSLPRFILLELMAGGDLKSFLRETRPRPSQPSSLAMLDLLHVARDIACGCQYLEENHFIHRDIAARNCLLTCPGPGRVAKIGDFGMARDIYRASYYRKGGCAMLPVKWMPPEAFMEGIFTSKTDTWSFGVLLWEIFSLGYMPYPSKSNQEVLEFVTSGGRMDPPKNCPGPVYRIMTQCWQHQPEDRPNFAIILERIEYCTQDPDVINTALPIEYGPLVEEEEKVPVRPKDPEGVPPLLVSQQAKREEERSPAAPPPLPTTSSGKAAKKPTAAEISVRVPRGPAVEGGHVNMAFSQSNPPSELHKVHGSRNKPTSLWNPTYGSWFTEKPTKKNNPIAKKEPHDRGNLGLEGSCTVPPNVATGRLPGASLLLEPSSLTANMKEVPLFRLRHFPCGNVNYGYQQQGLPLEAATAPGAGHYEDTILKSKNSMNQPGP

SMILES | IC50 (Wild Type ALK kinase) [nM] | IC50 (Karpas-299 cell line) [nM] | IC50 (cytochrome P450 1A2) [nM] | IC50 (cytochrome P450 2C9) [nM] | IC50 (cytochrome P450 2C19) [nM] | IC50 (cytochrome P450 2D6) [nM] | IC50 (cytochrome P450 3A4) [nM]
CC(C)S(=O)(=O)c1nn(C)cc1Nc1nc(Nc2ccc(C3CCN(C)CC3)cc2OC2CC2)ncc1Cl [Final product 40] | 3 | 7 | > 10000 | > 10000 | > 10000 | > 10000 | > 10000
CC(C)CS(=O)(=O)c1nn(C)cc1Nc1nc(Nc2ccc(C3CCN(C)CC3)cc2OC2CC2)ncc1Cl [Final product 43] | 5 | 26 | > 10000 | > 10000 | > 10000 | > 10000 | > 10000
CC(C)S(=O)(=O)c1nn(C2CC2)cc1Nc1nc(Nc2cc(F)c(C3CCN(C)CC3)cc2OC2CC2)ncc1Cl [Final product 46] | 2 |  | > 10000 | > 10000 | > 10000 | > 10000 | > 10000
CC(C)S(=O)(=O)c1nn(C)cc1Nc1nc(Nc2cc(Cl)c(C3CCN(C)CC3)cc2OC2CC2)ncc1Cl [Final product 47] | 4 | 15 | > 10000 | > 10000 | > 10000 | > 10000 | > 10000
Cc1cc(Nc2ncc(Cl)c(Nc3cn(C)nc3S(=O)(=O)C(C)C)n2)c(OC2CC2)cc1C1=CCN(C)CC1 [Final product 50] | 5 | 11 |  |  |  |  | 
Cc1cc(Nc2ncc(Cl)c(Nc3cn(C)nc3S(=O)(=O)C(C)C)n2)c(OC2CC2)cc1C1CCOCC1 [Final product 107] | 9 | 18 |  |  |  |  | 
Cc1cc(Nc2ncc(Cl)c(Nc3cn(C)nc3S(=O)(=O)C(C)C)n2)c(OC2CC2)cc1OC1CCN(C)CC1 [Final product 111] | 3 | 16 |  |  |  |  | 
CCN1CCC(c2cc(OC(C)C)c(Nc3ncc(Cl)c(Nc4cn(C)nc4S(=O)(=O)C(C)C)n3)cc2C)CC1 [Final product 118] | 5 | 9 |  |  |  |  | 
Cc1cc(Nc2ncc(Cl)c(Nc3cn(C)nc3S(=O)(=O)C(C)C)n2)c(OC(C)C)cc1C1CCN(C(C)C)CC1 [Final product 126] | 7 | 12 |  |  |  |  | 
Cc1cc(Nc2ncc(Cl)c(Nc3cn(C)nc3S(=O)(=O)CC(C)C)n2)c(OC2CC2)cc1C1CCN(C(C)C)CC1 [Final product 127] | 5 | 30 |  |  |  |  | 
CCOc1cc(C2CCN(CCO)CC2)c(C)cc1Nc1ncc(Cl)c(Nc2cn(C)nc2S(=O)(=O)C(C)C)n1 [Final product 135] | 3 | 3 |  |  |  |  | 
Cc1cc(Nc2ncc(Cl)c(Nc3cn(C)nc3S(=O)(=O)CC(C)C)n2)c(OC2CC2)cc1C1CCN(CCO)CC1 [Final product 137] | 4 | 12 |  |  |  |  | 
Cc1cc(Nc2ncc(Cl)c(Nc3cn(C)nc3S(=O)(=O)C(C)C)n2)c(OC2CCC2)cc1C1CCN(CCO)CC1 [Final product 138] | 4 | 6 |  |  |  |  | 
Cc1cc(Nc2ncc(Cl)c(Nc3cn(C)nc3S(=O)(=O)C(C)C)n2)c(OC(C)C)cc1C1CCN(C(C)(C)CO)CC1 [Final product 152] | 4 | 7 |  |  |  |  | 
Cc1cc(Nc2ncc(Cl)c(Nc3cn(C)nc3S(=O)(=O)C(C)C)n2)c(OC2CC2)cc1C1CCN(C2CC2)CC1 [Final product 157] | 7 | 13 |  |  |  |  | 
Cc1cc(Nc2ncc(Cl)c(Nc3cn(C)nc3S(=O)(=O)C(C)C)n2)c(OC2CC2)cc1C1CCN(C=O)CC1 [Final product 159, 4-(4-(5-chloro-4-(3-(isopropylsulfonyl)-1-methyl-1H-pyrazol-4-amino)pyrimidin-2-amino)-5-cyclopropoxy-2-methylphenyl)piperidin-1-formaldehyde] | 9 | 11 |  |  |  |  | 
Cc1cc(Nc2ncc(Cl)c(Nc3cn(C)nc3S(=O)(=O)C(C)C)n2)c(OC2CC2)cc1C1CCN(C(=O)C2CC2)CC1 [Final product 162, 1-cyclopropylformyl-4-(4-(5-chloro-4-(3-(isopropylsulfonyl)-1-methyl-1H-pyrazol-4-amino)pyrimidin-2-amine)-5-cyclopropoxy-2-methylphenyl)piperidine] | 19 | 24 |  |  |  |  | 

SMILES | IC50 (Wild Type ALK kinase) [nM] | IC50 (Karpas-299 cell line) [nM] | IC50 (cytochrome P450 1A2) [nM] | IC50 (cytochrome P450 2C9) [nM] | IC50 (cytochrome P450 2C19) [nM] | IC50 (cytochrome P450 2D6) [nM] | IC50 (cytochrome P450 3A4) [nM]
Cc1cc(Nc2ncc(Cl)c(Nc3cn(C)nc3S(=O)(=O)C(C)C)n2)c(OC2CC2)cc1C1CCN(C(=O)C(C)(C)C)CC1 [Final product 164, 1-pivaloyl-4-(4-(5-chloro-4-(3-(isopropylsulfonyl)-1-methyl-1H-pyrazol-4-amino)pyrimidin-2-amine)-5-cyclopropoxy-2-methylphenyl)piperidine] | 56 | 15 |  |  |  |  | 
Cc1cc(Nc2ncc(Cl)c(Nc3cn(C)nc3S(=O)(=O)C(C)C)n2)c(OC2CC2)cc1C1CCN(C(=O)CN(C)C)CC1 [Final product 165, 1-(2-dimethylamino)acetyl-4-(4-(5-chloro-4-(3-(isopropylsulfonyl)-1-methyl-1H-pyrazol-4-amino)pyrimidin-2-amino)-5-cyclopropoxy-2-methylphenyl)piperidine] | 2 | 3 |  |  |  |  | 
Cc1cc(Nc2ncc(Cl)c(Nc3cn(C)nc3S(=O)(=O)C(C)C)n2)c(OC(C)C)cc1C1CN(S(C)(=O)=O)C1 [Final product 168] | 14 | 68 |  |  |  |  | 
Cc1cc(Nc2ncc(Cl)c(Nc3cn(C)nc3S(=O)(=O)C(C)C)n2)c(OC2CC2)cc1C1CN(S(C)(=O)=O)C1 [Final product 170] | 40 | 86 |  |  |  |  | 
Cc1cc(Nc2ncc(Cl)c(Nc3cn(C)nc3S(=O)(=O)CC(C)C)n2)c(OC2CC2)cc1C1CN(S(C)(=O)=O)C1 [Final product 171] | 86 | 69 |  |  |  |  | 
CC(C)S(=O)(=O)c1nn(C)cc1Nc1nc(Nc2ccc(C3CCN(S(C)(=O)=O)C3)cc2OC2CC2)ncc1Cl (stereo not shown) [Final product 172] | 8 | 17 |  |  |  |  | 
CC(C)S(=O)(=O)c1nn(C2CC2)cc1Nc1nc(Nc2ccc(C3CCN(S(C)(=O)=O)CC3)cc2OC2CC2)ncc1Cl [Final product 173] | 37 | 19 |  |  |  |  | 
CCNC(=O)N1CCC(c2cc(OC3CC3)c(Nc3ncc(Cl)c(Nc4cn(C)nc4S(=O)(=O)C(C)C)n3)cc2C)CC1 [Final product 174, 4-(4-(5-chloro-4-(3-(isopropylsulfonyl)-1-methyl-1H-pyrazol-4-amine)pyrimidin-2-amine)-5-cyclopropoxy-2-methyl-phenyl)-N-ethyl-piperidin-1-carboxamide] | 4 | 20 |  |  |  |  | 
CCN(CC)[C@H]1CC[C@H](c2cc(OC3CC3)c(Nc3ncc(Cl)c(Nc4cn(C)nc4S(=O)(=O)CC(C)C)n3)cc2C)CC1 [Final product 178] | 18 | 18 |  |  |  |  | 
Cc1cc(Nc2ncc(Cl)c(Nc3cn(C)nc3S(=O)(=O)CC(C)C)n2)c(OC2CC2)cc1[C@H]1CC[C@H](NC2CC2)CC1 [Final product 180] | 35 | 26 |  |  |  |  | 
Cc1cc(Nc2ncc(Cl)c(Nc3cn(C)nc3S(=O)(=O)CC(C)C)n2)c(OC2CC2)cc1[C@H]1CC[C@H](NC(C)C)CC1 [Final product 182] | 14 | 15 |  |  |  |  | 
Cc1cc(Nc2ncc(Cl)c(Nc3cn(C)nc3S(=O)(=O)C(C)C)n2)c(OC(C)C)cc1[C@H]1CC[C@H](NC(C)C)CC1 [Final product 188] | 5 | 10 |  |  |  |  | 
Cc1cc(Nc2ncc(Cl)c(Nc3cn(C)nc3S(=O)(=O)C(C)C)n2)c(OC2CC2)cc1[C@H]1CC[C@@H](N(C)C)CC1 [Final product 189] | 4 | 6 |  |  |  |  | 
Cc1cc(Nc2ncc(Cl)c(Nc3cn(C)nc3S(=O)(=O)C(C)C)n2)c(OC2CC2)cc1[C@H]1CC[C@H](NC2CC2)CC1 [Final product 196] | 9 | 9 |  |  |  |  | 
Cc1cc(Nc2ncc(Cl)c(Nc3cn(C)nc3S(=O)(=O)C(C)C)n2)c(OC2CC2)cc1[C@H]1CC[C@H](NC(C)C)CC1 [Final product 198] | 5 | 5 |  |  |  |  | 
Cc1cc(Nc2ncc(Cl)c(Nc3cn(C)nc3S(=O)(=O)C(C)C)n2)c(OC2CC2)cc1C1=C(Cl)CN(C)CC1 [Final product 208, 5-chloro-N^2-[4-(5-chloro-1-methyl-1,2,3,6-tetrahydro-pyridin-4-yl)-2-cyclopropoxy-5-methyl-phenyl]-N^4-[1-methyl-3-(isopropylsulfonyl)-1H-pyrazol-4-yl]-pyrimidin-2,4-diamine] | 6 | 35 |  |  |  |  | 
